Data from ChEMBL document CHEMBL1909046, “DrugMatrix in vitro pharmacology data”.

Key:
[1] = target: Histamine H2 receptor (Homo sapiens, UniProt P25021); format: cell membranes, CHO-K1, Membrane; details: for Ki: read-out: Ki; for all read-outs here: in other assays of this panel Not Active means under 50% inhibition at 10 µM
[2] = target: Tyrosine-protein kinase Fyn (Homo sapiens, UniProt P06241); test: biochemical; format: cell-based, Insect cells;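 note: enzymatic inhibition of Fyn kinase activity measured with Poly(Glu:Tyr) as the phosphorylation substrate; in other assays of this panel Not Active means under 50% inhibition at 10 µM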
[3] = target: T1, Alpha-1D adrenergic receptor (Homo sapiens, UniProt P25100); format: cell membranes, HEK293, Membrane; details: for Ki: read-out: Ki; for all read-outs here: in other assays of this panel Not Active means under 50% inhibition at 10 µM
T1 sequence (P25100 whole entry): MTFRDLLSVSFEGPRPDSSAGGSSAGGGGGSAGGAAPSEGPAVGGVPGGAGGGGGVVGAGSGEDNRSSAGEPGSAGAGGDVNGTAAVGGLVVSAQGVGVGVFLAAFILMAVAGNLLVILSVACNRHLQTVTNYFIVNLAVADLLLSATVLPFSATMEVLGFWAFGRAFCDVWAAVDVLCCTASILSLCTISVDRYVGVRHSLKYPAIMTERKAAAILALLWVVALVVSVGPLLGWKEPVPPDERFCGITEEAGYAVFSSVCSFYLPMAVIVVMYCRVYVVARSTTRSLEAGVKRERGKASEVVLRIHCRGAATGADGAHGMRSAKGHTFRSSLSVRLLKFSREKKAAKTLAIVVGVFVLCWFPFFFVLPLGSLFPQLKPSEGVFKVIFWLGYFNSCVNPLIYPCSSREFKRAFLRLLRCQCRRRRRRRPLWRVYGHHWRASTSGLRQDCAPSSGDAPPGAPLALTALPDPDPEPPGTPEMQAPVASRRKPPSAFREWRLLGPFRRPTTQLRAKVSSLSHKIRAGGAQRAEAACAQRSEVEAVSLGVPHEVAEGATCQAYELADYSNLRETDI

[4] = target: T2, Cholecystokinin receptor type A (Homo sapiens, UniProt P32238); format: cell membranes, Membrane; details: 1321-n1; note: in other assays of this panel Not Active means under 50% inhibition at 10 µM
T2 sequence (P32238 whole entry): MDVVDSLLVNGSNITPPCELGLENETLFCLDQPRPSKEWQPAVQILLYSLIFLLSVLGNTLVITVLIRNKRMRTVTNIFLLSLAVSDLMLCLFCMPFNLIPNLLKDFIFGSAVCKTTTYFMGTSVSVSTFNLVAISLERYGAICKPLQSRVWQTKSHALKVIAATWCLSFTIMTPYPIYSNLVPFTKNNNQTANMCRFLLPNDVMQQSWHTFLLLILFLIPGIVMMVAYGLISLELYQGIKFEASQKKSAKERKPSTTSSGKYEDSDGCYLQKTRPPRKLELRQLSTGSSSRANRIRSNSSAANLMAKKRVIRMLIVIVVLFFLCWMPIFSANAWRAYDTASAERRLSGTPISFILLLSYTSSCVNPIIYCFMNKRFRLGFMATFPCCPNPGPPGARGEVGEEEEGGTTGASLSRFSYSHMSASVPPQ

[5] = target: T3, Alpha-1A adrenergic receptor (Rattus norvegicus, UniProt P43140); test: DRUGMATRIX: Alpha-1A adrenergic receptor radioligand binding (ligand: prazosin); format: cell membranes, Wistar, Submaxillary gland, Membrane; details: Not Active = under 50% inhibition at 10 µM; for Ki: read-out: Ki
T3 sequence (P43140 whole entry): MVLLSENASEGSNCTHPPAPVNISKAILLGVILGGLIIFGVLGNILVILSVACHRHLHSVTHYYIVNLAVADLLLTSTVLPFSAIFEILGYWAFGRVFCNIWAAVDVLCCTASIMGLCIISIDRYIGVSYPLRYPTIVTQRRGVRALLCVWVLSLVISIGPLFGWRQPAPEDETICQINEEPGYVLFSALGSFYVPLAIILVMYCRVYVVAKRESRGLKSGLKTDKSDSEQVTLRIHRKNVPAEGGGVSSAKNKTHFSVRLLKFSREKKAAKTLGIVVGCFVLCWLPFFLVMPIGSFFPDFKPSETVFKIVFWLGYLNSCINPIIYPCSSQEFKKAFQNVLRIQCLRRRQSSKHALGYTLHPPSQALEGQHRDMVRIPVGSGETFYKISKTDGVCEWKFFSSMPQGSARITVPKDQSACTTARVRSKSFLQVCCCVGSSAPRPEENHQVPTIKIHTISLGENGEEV

[6] = target: Matrix metalloproteinase-9 (Homo sapiens, UniProt P14780); format: cell-based
Chain of Matrix metalloproteinase-9 (P14780 whole entry): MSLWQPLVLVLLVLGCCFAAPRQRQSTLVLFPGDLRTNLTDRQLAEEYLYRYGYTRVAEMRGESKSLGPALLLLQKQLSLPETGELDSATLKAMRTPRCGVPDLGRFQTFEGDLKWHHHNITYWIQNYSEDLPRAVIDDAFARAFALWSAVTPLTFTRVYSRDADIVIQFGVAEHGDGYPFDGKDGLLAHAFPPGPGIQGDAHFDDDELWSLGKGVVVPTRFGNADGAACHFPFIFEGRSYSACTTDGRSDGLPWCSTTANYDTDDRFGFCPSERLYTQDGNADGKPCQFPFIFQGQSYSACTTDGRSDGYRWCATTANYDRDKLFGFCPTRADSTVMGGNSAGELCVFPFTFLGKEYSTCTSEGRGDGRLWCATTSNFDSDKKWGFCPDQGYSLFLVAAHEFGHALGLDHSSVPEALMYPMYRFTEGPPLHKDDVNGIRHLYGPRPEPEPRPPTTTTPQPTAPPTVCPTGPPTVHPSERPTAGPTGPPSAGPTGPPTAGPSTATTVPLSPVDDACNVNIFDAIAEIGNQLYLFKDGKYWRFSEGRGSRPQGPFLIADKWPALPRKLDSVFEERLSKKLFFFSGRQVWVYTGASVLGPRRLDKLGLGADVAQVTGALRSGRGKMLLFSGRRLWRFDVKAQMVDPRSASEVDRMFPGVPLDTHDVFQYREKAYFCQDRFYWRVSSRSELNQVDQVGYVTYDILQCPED

Chain of Histamine H2 receptor (P25021 whole entry): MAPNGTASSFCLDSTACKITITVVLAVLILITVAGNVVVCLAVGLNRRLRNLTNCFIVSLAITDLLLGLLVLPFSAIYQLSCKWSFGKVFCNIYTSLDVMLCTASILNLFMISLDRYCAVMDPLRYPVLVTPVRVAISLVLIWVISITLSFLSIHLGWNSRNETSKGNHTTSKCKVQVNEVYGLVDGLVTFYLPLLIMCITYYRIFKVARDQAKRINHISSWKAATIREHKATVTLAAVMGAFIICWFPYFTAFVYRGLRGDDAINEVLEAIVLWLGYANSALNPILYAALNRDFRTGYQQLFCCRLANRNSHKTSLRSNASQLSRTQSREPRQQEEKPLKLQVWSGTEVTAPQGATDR
Chain of Tyrosine-protein kinase Fyn (P06241 whole entry): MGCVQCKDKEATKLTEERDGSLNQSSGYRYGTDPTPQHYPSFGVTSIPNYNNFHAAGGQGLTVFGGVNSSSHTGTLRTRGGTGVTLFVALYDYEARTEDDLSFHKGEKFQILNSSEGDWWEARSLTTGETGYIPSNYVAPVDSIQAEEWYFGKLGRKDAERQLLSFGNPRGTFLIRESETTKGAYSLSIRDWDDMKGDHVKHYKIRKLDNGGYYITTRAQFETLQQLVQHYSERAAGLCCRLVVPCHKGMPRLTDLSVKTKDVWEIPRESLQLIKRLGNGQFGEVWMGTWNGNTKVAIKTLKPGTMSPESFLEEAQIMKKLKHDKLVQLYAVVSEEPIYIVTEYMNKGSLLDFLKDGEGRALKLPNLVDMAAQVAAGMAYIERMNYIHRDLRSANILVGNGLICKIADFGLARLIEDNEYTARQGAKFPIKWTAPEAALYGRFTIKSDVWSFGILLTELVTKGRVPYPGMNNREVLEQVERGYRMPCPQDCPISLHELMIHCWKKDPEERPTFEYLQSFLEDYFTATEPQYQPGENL

With `CCCCC(=O)N(Cc1ccc(-c2ccccc2-c2nnn[nH]2)cc1)[C@H](C(=O)O)C(C)C` the IC50 ([1]; cho-k1) was “Not Active”, the IC50 ([2]; insect cells) was “Not Active” and the IC50 ([3]; hek293) was “Not Active”. For the same compound, the IC50 [4] was “Not Active”, the IC50 [5] was “Not Active” and the IC50 [6] was “Not Active”.

For `O=C(O)COc1ccc(C(=O)c2cccs2)c(Cl)c1Cl`, the IC50 ([1]; cho-k1) was “Not Active”, the IC50 ([2]; insect cells) was “Not Active” and the IC50 ([3]; hek293) was “Not Active”. For the same compound, the IC50 [4] was “Not Active”, the IC50 [5] was “Not Active” and the IC50 [6] was “Not Active”.

In the case of `CN1[C@@H]2CC[C@H]1C[C@@H](OC(c1ccccc1)c1ccccc1)C2` [BENZTROPINE], the IC50 ([1]; read-out: IC50) is reported as 1210 nM, the Ki [1] is reported as 1190 nM and the IC50 ([2]; insect cells) is reported as “Not Active”. The IC50 ([3]; read-out: IC50) was 52 nM, the Ki [3] was 26 nM and the IC50 [4] was “Not Active”. For the same compound, the IC50 ([5]; read-out: IC50) was 142 nM, the Ki [5] was 57 nM and the IC50 [6] was “Not Active”.

In the case of `C[C@@](Cc1ccc(O)c(O)c1)(NN)C(=O)O.O` [CARBIDOPA], the IC50 ([1]; cho-k1) is reported as “Not Active”, the IC50 ([2]; read-out: IC50) is reported as 3730 nM and the IC50 ([3]; hek293) is reported as “Not Active”. The IC50 [4] was “Not Active”, the IC50 [5] was “Not Active” and the IC50 [6] was “Not Active”.

For `CN1CCN(C2=Nc3cc(Cl)ccc3Nc3ccccc32)CC1` [CLOZAPINE], the IC50 ([1]; read-out: IC50) was […], the Ki [1] was […] and the IC50 ([2]; insect cells) was “Not Active”. For the same compound, the IC50 [4] was “Not Active” and the IC50 [6] was “Not Active”.

For `CC(C)NC[C@@H](O)COc1cccc2ccccc12` [DEXPROPRANOLOL], the IC50 ([1]; cho-k1) was “Not Active”, the IC50 ([2]; insect cells) was “Not Active” and the IC50 ([3]; hek293) was “Not Active”. For the same compound, the IC50 [4] was “Not Active”, the IC50 [5] was “Not Active” and the IC50 [6] was “Not Active”.

`CC(C)NC[C@H](O)COc1cccc2ccccc12` [LEVOPROPRANOLOL] was tested, and the IC50 ([1]; cho-k1) was “Not Active”, the IC50 ([2]; insect cells) was “Not Active” and the IC50 ([3]; hek293) was “Not Active”. The IC50 [4] was “Not Active”, the IC50 [5] was “Not Active” and the IC50 [6] was “Not Active”.

`O=C(O)CCCCC1CCSS1` (stereo not drawn) [LIPOIC ACID, ALPHA] was tested, and the IC50 ([1]; cho-k1) was “Not Active”, the IC50 ([2]; insect cells) was “Not Active” and the IC50 ([3]; hek293) was “Not Active”. For the same compound, the IC50 [4] was “Not Active”, the IC50 [5] was “Not Active” and the IC50 [6] was “Not Active”.

For `CN(C)C(=O)C(CCN1CCC(O)(c2ccc(Cl)cc2)CC1)(c1ccccc1)c1ccccc1` [LOPERAMIDE], the IC50 ([1]; read-out: IC50) was 3080 nM, the Ki [1] was 3030 nM and the IC50 ([2]; insect cells) was “Not Active”. The IC50 ([3]; hek293) was “Not Active”, the IC50 [4] was “Not Active” and the IC50 ([5]; read-out: IC50) was 6220 nM. For the same compound, the Ki [5] was 2520 nM and the IC50 [6] was “Not Active”.

For `Clc1ccc(COC(Cn2ccnc2)c2ccc(Cl)cc2Cl)c(Cl)c1` (stereo not given) [MICONAZOLE], the IC50 ([1]; read-out: IC50) was 6750 nM, the Ki [1] was 6640 nM and the IC50 ([2]; read-out: IC50) was 4160 nM. For the same compound, the IC50 ([3]; read-out: IC50) was 3050 nM, the Ki [3] was 1500 nM and the IC50 [4] was “Not Active”. The IC50 [5] was “Not Active” and the IC50 [6] was “Not Active”.

For `Oc1ccc2c3c1O[C@H]1[C@@H](O)CC[C@@]4(O)[C@@H](C2)N(CC2CCC2)CC[C@]314` [NALBUPHINE], the IC50 ([1]; cho-k1) was “Not Active”, the IC50 ([2]; insect cells) was “Not Active” and the IC50 ([3]; hek293) was “Not Active”. The IC50 [4] was “Not Active”, the IC50 [5] was “Not Active” and the IC50 [6] was “Not Active”.

With `C[C@]12C=CC(=O)C=C1CC[C@@H]1[C@@H]2C(=O)C[C@@]2(C)[C@H]1CC[C@]2(O)C(=O)CO` [PREDNISONE] the IC50 ([1]; cho-k1) was “Not Active”, the IC50 ([2]; insect cells) was “Not Active” and the IC50 ([3]; hek293) was “Not Active”. For the same compound, the IC50 [4] was “Not Active”, the IC50 [5] was “Not Active” and the IC50 [6] was “Not Active”.

In the case of `OCCOCCN1CCN(C2=Nc3ccccc3Sc3ccccc32)CC1` [QUETIAPINE], the IC50 ([1]; cho-k1) is reported as “Not Active”, the IC50 ([2]; insect cells) is reported as “Not Active” and the IC50 ([3]; read-out: IC50) is reported as 96.6 nM. The Ki [3] was 47.5 nM, the IC50 [4] was “Not Active” and the IC50 [6] was “Not Active”.

In the case of `COC(=O)[C@H]1[C@H]2C[C@@H]3c4[nH]c5cc(OC)ccc5c4CCN3C[C@H]2C[C@@H](OC(=O)c2cc(OC)c(OC)c(OC)c2)[C@@H]1OC` [RESERPINE], the IC50 ([1]; cho-k1) is reported as “Not Active”, the IC50 ([2]; insect cells) is reported as “Not Active” and the IC50 ([3]; hek293) is reported as “Not Active”. The IC50 [4] was “Not Active”, the IC50 [5] was “Not Active” and the IC50 [6] was “Not Active”.
